Experimental findings from US20160375127A1, “Method of producing an inactivated lentivirus, especially HIV, vaccine, kit and method of use” (LABORATOIRE BIODIM, priority 2013, published 2016) are described below.

Each structure is given as a SMILES string. Entries after “also recorded” stand apart in the source; their conditions may differ.

Assay [1] relates to HIV-1 LAV. Description: p24 titration of virus harvested from treated HeLa-LAV producer cells. Format: cell-based. The settings on record: HeLa-LAV cells treated during virus production.
Description: (§1) In order to examine the infectivity of viruses produced in the presence of these various compounds, the supernatants were harvested, titrated for viral protein p24 release using the Alliance HIV-1 p24 Antigen ELISA (PerkinElmer, http://www.perkinelmer.com/) and titrated to measure the quantity of infectious particles per ml by infecting TZM-bl indicator cells (from the AIDS reagent program, NIH) expressing luciferase under a Tat-dependent promoter. Alternatively for titration of infectious particles, target cells for HIV-1 infection such as MT4 cells were used.
as §1, with “2—Production of Viral particles in the presence of compounds. […] In” for “In”, “are” for “were”, “harvested, stored at −80° C. and” for “harvested,”, “cells” for “cells (from the AIDS reagent program, NIH)”, “are used as described above in 1a.” for “were used.”

Assay [2] has as its system HIV-1 LAV. As to the kind of experiment: Infectivity of virions from treated HeLa-LAV cells on TZM indicator cells, luciferase assay. It counts as cell-based.
Description: as §1
as §1, with “2—Production of Viral particles in the presence of compounds. […] In” for “In”, “are” for “were”, “harvested, stored at −80° C. and” for “harvested,”, “cells” for “cells (from the AIDS reagent program, NIH)”, “are used as described above in 1a.” for “were used.”

Assay [3] deals with HIV-1 LAV. As to the kind of experiment: Infectivity of virions from treated HeLa-LAV cells on MT4 cells, cytopathic assay CellTiter-Glo. Format: cell-based. The following applies: virus stock diluted up to 2000 times.
Description: as §1
(§2) Usually 1/2000 dilution of the virus stock is used to infect MT4 target cells. Productive HIV-1 infection is determined after 5 days using the CellTiter-Glo® luminescent reagent (Promega, France) to quantify MT4 cell viability. Alternatively, productive infection can be estimated by quantitation of p24 antigen as described in paragraph 2 above.
A general note: Protection from cytopathic effect is a common read-out in antiviral testing.

The next assay concerns HIV-1 Gag. Description: Western blot of Gag maturation and CA p24 content in producer cell lysates and virions, anti-p24 antibody. Format: cell-based. The following applies: HeLa-LAV cell lysates and defective virions.
The target of a further assay is T1, HIV-1 integrase (Human immunodeficiency virus type 1 group M subtype B, UniProt P12497).
T1 construct: Superdex 200 16/600 PG column for IN full length; made in house
As to the kind of experiment: Size exclusion chromatography of recombinant HIV-1 integrase on Superdex 200 PC 3.2/30. The settings on record: untreated IN elutes as dimer, 64 KD MW; 8 μM IN with 20 μM compound. Format: biochemical. Here is the method:
Multimerization of HIV-1 Integrase upon treatment with inactivating compounds was performed using size exclusion chromatography on a Superdex 200 PC 3.2/30 column (GE Healthcare), as described in the method section. Aldolase (158,000 MW), Conalbumin (75,000 MW), Carbonic Anhydrase (29,000 MW), and Ribonuclease A (13,700 MW) were used as protein markers for calibration.
was performed on a Superdex 200 PC 3.2/30 column (GE Healthcare) using an AKTA chromatography system (GE Healthcare) at 0.04 mL/min at room temperature. 20 μL of sample was injected on the column previously equilibrated in Integrase buffer (50 mM HEPES pH 7.5 containing 1M NaCl, 7 mM CHAPS, 5 mM MgCl2, 10% glycerol). 1 μM Compound was added to the mobile phase in order to avoid integrase-inhibitor dissociation during the separation.
For orientation: Size exclusion chromatography separates by hydrodynamic size, large species first.

The subject of assay [4] is HIV-1 NL4-3. As to the kind of experiment: Infectivity of NL4-3 virus from treated transfected 293T cells on MT4 cells, CellTiter-Glo. The following applies: 293T transfection, compound 48 hours, supernatant diluted 2000 times, MT4 viability. Format: cell-based. Here is the method: FIG. 4: Infectivity of wt NL4-3 viruses harvested from 293T transfected cells after treatment with the indicated compounds and tested by infection of MT4 cells using the cytopathic assay CellTiter-Glo®.
2 hours after transfection indicated compounds were added during virus production for 48 hours at the indicated concentrations. […] Viruses released in cell supernatants were harvested and tested for virus production by p24 assay, and virus infectivity by infection of MT4 cells and cytophatic assay using CellTiter-Glo® (Promega) according manufacturer's instructions.
293T cells (2.2 10^6 cells) are transfected with plasmids harboring full length cloned HIV proviral DNA such as pNL4-3 or any other HIV proviral clone including autologous HIV molecular clones using DNA transfection reagent such as X-tremeGENE 9 reagent (Roche). Cells are washed 3 h later, trypsinized and diluted at 0.3 10^6 cells per ml. 5 10^5 cells in 1.6 ml fresh culture media are distributed into 6 wells plate and the volume is adjusted to 2 ml by adding 0.4 ml of media containing compounds and DMSO per well, or DMSO only as control. As reference compounds capable to fully inactivate HIV during virus production by producer cells, Protease inhibitors such as Indinavir or Saquinavir are used as additional controls. Final concentration for each compound, including reference protease inhibitor compounds, is kept equivalent to 5 times its EC50 concentration previously calculated into a multiple round assay as in (a) and DMSO is kept at 0.5% final concentration. Supernatants containing HIV virions are collected 48 h post-transfection and stored at −80° C. All Viral stocks are quantified for p24 antigen using the Alliance HIV-1 p24 Antigen ELISA (PerkinElmer, http://www.perkinelmer.com/) and titrated to measure the quantity of infectious particles per ml by infecting TZM-bl indicator cells.
as §2, with “above. Full inactivation of the virus stock by compounds is estimated by results obtained in the presence of compound compared on the one hand to DMSO alone which indicates the 100% infectious virus stock (0% inactivation), and on the other hand to Protease inhibitor treatment which indicates the 100% virus stock inactivation.” for “above.”

Assay [5] deals with HIV-1 NL4-3. Description: Western blot of NL4-3 virus lysates with anti-p24, anti-RT and anti-IN antibodies. It counts as cell-based. The settings on record: anti-IN, versus wt virus treated with DMSO. For orientation: A western blot detects proteins with antibodies after separation by electrophoresis.
Assay [6] relates to HIV-1 NL4-3. Description: CA p24 titration of NL4-3 virus produced by 293T cells in the presence of compound. Format: cell-based. The settings on record: 1 μM compound in 0.5% DMSO, 48 hours; untreated virus 19.6 μg/ml. Here is the method:
The assay shown in FIG. 6 measures the concentration of whole virus particles (p24 ng/ml on the Y axis) captured on plates coated with various anti-HIV antibodies at three different concentrations as indicated in the X axis. […] As indicated, two different dilutions of each of these virus preparations were incubated in the antibody-coated plates with the indicated antibodies, for 1 hour. Unbound virions were removed by washing. Virions captured by the indicated antibodies were lysed and quantitated by p24 assay by ELISA (Innogenetics/Ingen, Ghent Belgium). The anti-HIV antibodies used were a neutralizing polyclonal IgG F6 Gri/Ii, an irrelevant IgG F6 Neg (negative control), two monoclonal anti-HIV Env antibodies, 2G12 (neutralizing) and 4B3 (non-neutralizing), and an irrelevant monoclonal antibody (Synagis) as negative control.
(§3) To do so, HIV-1 NL4-3 virus was produced upon 293T cell transfection using Opti-Mem® reagent (Life Technologies) according manufacturer's instructions. […] Cell supernatants containing virus were ultracentrifuged through sucrose cushion. Virus pellets were resuspended in cell culture medium, aliquoted and titrated for CA p24 amount using anti-p24 antibody (Innotest HIV antigen/mAB Immunogenetics/Ingen Ghent, Belgium or Alliance® HIV-I p24 ELISA kit PerkinElmer).

Assay [7] has as its system HIV-1 NL4-3. As to the kind of experiment: Check of inactivation: multiple-round infection assay of MT4 human cells during five days. The settings on record: virus produced with 1 μM compound. Format: cell-based.
Description: as §3

As to `Cc1nc2cc(-c3cccnc3)ccc2c(-c2ccc3c(c2)CCCO3)c1C(OC(C)(C)C)C(=O)O` (stereo not drawn) [MUT145212], in the assay on HIV-1 LAV [1] (versus DMSO), the “amount of p24 produced” value was “comparable to that in the presence of DMSO”. Besides, in the assay with HIV-1 LAV [2], the “infectivity of viruses produced in the presence of compound” value (from here on “infectivity of viruses produced”) was “non-infectious”. In addition, the “infectivity / cytopathic effect of viruses produced in the presence of compound” value (from here on “infectivity / cytopathic effect”) with HIV-1 LAV [3] was “totally impaired for such cytopathic effect”. Moreover, in the assay with HIV-1 Gag, the “perturbation of Gag maturation and CA p24 content” value (from here on “perturbation”) is “could not detect any perturbation of Gag maturation and CA p24 content”. Moreover, the “MW at which HIV-1 integrase is eluted (IN tetramer)” value at HIV-1 integrase is given as 130 KD MW.
In the case of `Cc1nc2c(-c3cccc(C(N)=O)c3)cccc2c(-c2ccc3c(c2)CCCO3)c1C(OC(C)(C)C)C(=O)O` (stereo not drawn) [MUT145227], the “amount of p24 produced” value with HIV-1 LAV [1] (versus DMSO) is “comparable to that in the presence of DMSO”. Further, the “infectivity of viruses produced” value in the assay on HIV-1 LAV [2] is listed as “non-infectious”. The “infectivity / cytopathic effect” value in the assay with HIV-1 LAV [3] is recorded as “totally impaired for such cytopathic effect”. Further, the “perturbation” value in the assay on HIV-1 Gag is “could not detect any perturbation of Gag maturation and CA p24 content”.
With `Cc1nc2cc(C(N)=O)ccc2c(-c2ccc3c(c2)CCCO3)c1C(OC(C)(C)C)C(=O)O` (stereo not drawn) [MUT145240], the “MW at which HIV-1 integrase is eluted (IN tetramer)” value on HIV-1 integrase amounted to 130 KD MW.
As for `Cc1nc2c(c(-c3ccc4c(c3)CCCO4)c1C(OC(C)(C)C)C(=O)O)CCCC2` (stereo not drawn) [MUT145509], in the assay on HIV-1 LAV [1] (versus DMSO), the “amount of p24 produced” value is on record as “comparable to that in the presence of DMSO”. Besides, the “infectivity of viruses produced” value in the assay on HIV-1 LAV [2] was “non-infectious”. Further, the “infectivity / cytopathic effect” value in the assay with HIV-1 LAV [3] is reported as “totally impaired for such cytopathic effect”. Also, in the assay on HIV-1 Gag, the “perturbation” value was “could not detect any perturbation of Gag maturation and CA p24 content”. In addition, in the assay on HIV-1 NL4-3 [4], the “inactivation of NL4-3 virus produced in the presence of compound” value (shortened to “inactivation of NL4-3 virus produced”) is given as “inactivated”.
In the case of `Cc1sc(-c2ccncc2)c(C2=CCC(C)(C)CC2)c1[C@H](OC(C)(C)C)C(=O)O` [MUT148237], the “inactivation of NL4-3 virus produced” value in the assay on HIV-1 NL4-3 [4] was “inactivated”. Moreover, the “protein content and maturation profile of treated virus” value in the assay with HIV-1 NL4-3 [5] was “protein content and maturation profile identical to wt virus; also recorded: exactly the same profile, with normal protein content and protein maturation than fully infectious virus”. Moreover, the “CA p24 titer of virus inactivated during production” value with HIV-1 NL4-3 [6] was 17.6 µg/mL. Also, in the assay with HIV-1 NL4-3 [7], the “excess of inactivated virus over untreated virus needed to infect 100,000 cells” value was “more than 10,000 times” and the “extent of virus inactivation” value is listed as over 99.99%. Further, the “amount of p24 of virus supernatant needed for infection of 50% of MT4 cells” value in the assay on HIV-1 NL4-3 [7] (untreated virus 0.11 pg) is reported as 5,139 pg.
In the case of `Cc1nnc(C(=O)NC(C)(C)c2nc(C(=O)NCc3ccc(F)cc3)c(O)c(=O)n2C)o1` [Raltegravir, reference compound], in the assay on HIV-1 LAV [2], the “infectivity of viruses produced” value is recorded as “comparable to viruses produced in the presence of DMSO”. Besides, the “infectivity / cytopathic effect” value in the assay on HIV-1 LAV [3] is listed as “fully infectious”. In the assay with HIV-1 NL4-3 [4], the “inactivation of NL4-3 virus produced” value is on record as “no effect”.
Take `CC(C)(C)NC(=O)[C@@H]1C[C@@H]2CCCC[C@@H]2CN1C[C@@H](O)[C@H](Cc1ccccc1)NC(=O)[C@H](CC(N)=O)NC(=O)c1ccc2ccccc2n1` [Saquinavir, reference compound]: in the assay with HIV-1 LAV [1], the “amount of p24 produced” value was 30%. Moreover, the “infectivity of viruses produced” value with HIV-1 LAV [2] is listed as “non infectious”. Also, the “infectivity / cytopathic effect” value in the assay on HIV-1 LAV [3] is given as “totally impaired for such cytopathic effect”. For the same compound, the “inactivation of NL4-3 virus produced” value with HIV-1 NL4-3 [4] is listed as “inactivated”. Besides, the “protein content and maturation profile of treated virus” value in the assay on HIV-1 NL4-3 [5] was “strong defect in maturation”; with HIV-1 NL4-3 [5] (listed as saquinavir), “strong defect in maturation and absence of RT and IN mature proteins”.
